target: T1, purified human HDAC6 (Homo sapiens, UniProt Q9UBN7); test: HDAC6 Enzyme Assay; format: biochemical; settings: compound concentration 0.37 μM, read-out: Percent Inhibition
T1 construct: purchased BPS Bioscience 5006
T1 sequence (Q9UBN7 1-1215): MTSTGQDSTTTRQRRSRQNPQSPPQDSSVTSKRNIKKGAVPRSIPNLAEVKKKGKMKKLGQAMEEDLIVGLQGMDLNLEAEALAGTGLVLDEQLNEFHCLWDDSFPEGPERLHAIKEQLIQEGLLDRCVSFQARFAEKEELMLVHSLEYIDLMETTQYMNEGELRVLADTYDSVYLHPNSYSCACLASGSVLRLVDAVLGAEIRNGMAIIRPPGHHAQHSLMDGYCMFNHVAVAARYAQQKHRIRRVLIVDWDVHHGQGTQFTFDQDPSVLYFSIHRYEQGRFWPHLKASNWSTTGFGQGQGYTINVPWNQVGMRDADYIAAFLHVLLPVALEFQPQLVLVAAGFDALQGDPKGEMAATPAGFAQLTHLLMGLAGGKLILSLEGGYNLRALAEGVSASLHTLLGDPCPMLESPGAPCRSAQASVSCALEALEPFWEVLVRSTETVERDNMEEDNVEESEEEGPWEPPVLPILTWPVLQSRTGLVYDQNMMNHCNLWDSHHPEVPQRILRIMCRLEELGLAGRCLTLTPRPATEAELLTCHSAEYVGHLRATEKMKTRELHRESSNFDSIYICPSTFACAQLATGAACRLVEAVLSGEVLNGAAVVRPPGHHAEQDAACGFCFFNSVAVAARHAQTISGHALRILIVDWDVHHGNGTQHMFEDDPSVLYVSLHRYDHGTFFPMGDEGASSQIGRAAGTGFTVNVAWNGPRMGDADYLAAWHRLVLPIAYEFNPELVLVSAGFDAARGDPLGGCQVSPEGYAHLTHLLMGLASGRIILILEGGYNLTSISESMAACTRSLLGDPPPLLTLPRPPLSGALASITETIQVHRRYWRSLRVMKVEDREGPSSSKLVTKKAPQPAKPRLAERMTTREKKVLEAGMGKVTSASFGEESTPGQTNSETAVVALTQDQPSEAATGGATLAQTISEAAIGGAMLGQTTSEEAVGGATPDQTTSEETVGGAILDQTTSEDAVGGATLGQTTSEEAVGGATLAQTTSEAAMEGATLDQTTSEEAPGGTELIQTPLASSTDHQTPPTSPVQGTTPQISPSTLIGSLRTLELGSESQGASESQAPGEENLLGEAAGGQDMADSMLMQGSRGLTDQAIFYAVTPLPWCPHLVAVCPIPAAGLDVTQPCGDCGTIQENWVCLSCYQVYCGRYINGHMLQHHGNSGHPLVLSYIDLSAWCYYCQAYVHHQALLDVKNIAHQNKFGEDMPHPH
Summary of the method: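 Purified human HDAC6 incubated 1 h at 30° C with Ac-Arg-Gly-Lys(Ac)-AMC peptide plus compound or DMSO; stopped with trichostatin A. Deacetylated product trypsin-digested, released AMC read by fluorescence (Ex 340/Em 460 nm). Percent inhibition at one concentration or IC50 from curves relative to DMSO controls.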

Compound	inhibition at 0.37 µM [%]
O=C(O)c1ccc(-c2cccc(CCn3cnc4ccc(C(=O)NO)cc4c3=O)c2)cc1 [Compound I-321, 3′-{2-[6-[(hydroxyamino)carbonyl]-4-oxoquinazolin-3(4H)-yl]ethyl}biphenyl-4-carboxylic acid]	87.3
O=C(NO)c1ccc2ccn(CCc3ccccn3)c(=O)c2c1 [Compound I-344, N-hydroxy-1-oxo-2-(2-pyridin-2-ylethyl)-1,2-dihydroisoquinoline-7-carboxamide]	93.1
O=C(NO)c1ccc2ncn(CCC(c3ccccc3)C3CCCCC3)c(=O)c2c1 (stereo not shown) [Compound I-340, 3-(3-cyclohexyl-3-phenylpropyl)-N-hydroxy-4-oxo-3,4-dihydroquinazoline-6-carboxamide]	94.9
O=C(NO)c1ccc2ccn(CCC3CCNCC3)c(=O)c2c1 [Compound I-343, N-hydroxy-1-oxo-2-(2-piperidin-4-ylethyl)-1,2-dihydroisoquinoline-7-carboxamide]	91.3
O=C(NO)c1ccc2ncn(Cc3cccc(-c4cccc(C(=O)NC5CC5)c4)c3)c(=O)c2c1 [Compound I-126, 3-({3′-[(cyclopropylamino)carbonyl]biphenyl-3-yl}methyl)-N-hydroxy-4-oxo-3,4-dihydroquinazoline-6-carboxamide]	95.6

Continued, values first:

inhibition at 0.37 µM [%]	Compound
93	Cc1ccc(CCc2nc3cc(C(=O)NO)ccc3c(=O)[nH]2)o1 [Compound I-412, N-hydroxy-2-[2-(5-methyl-2-furyl)ethyl]-4-oxo-3,4-dihydroquinazoline-7-carboxamide]
100	O=C(NO)c1ccc2ccn(CCC(c3ccc(Cl)cc3)C3CCNCC3)c(=O)c2c1 (stereo not shown) [Compound I-103, 2-[3-(4-chlorophenyl)-3-piperidin-4-ylpropyl]-N-hydroxy-1-oxo-1,2-dihydroisoquinoline-7-carboxamide]
90.1	CCN1CCC(CCn2ccc3ccc(C(=O)NO)cc3c2=O)CC1 [Compound I-315, 2-[2-(1-ethylpiperidin-4-yl)ethyl]-N-hydroxy-1-oxo-1,2-dihydroisoquinoline-7-carboxamide]
94	COc1ncccc1-c1cccc(Cn2cnc3ccc(C(=O)NO)cc3c2=O)c1 [Compound I-136, N-hydroxy-3-[3-(2-methoxypyridin-3-yl)benzyl]-4-oxo-3,4-dihydroquinazoline-6-carboxamide]

same assay, conditions: compound concentration 0.412 μM, read-out: Percent Inhibition

Compound	inhibition at 0.412 µM [%]
Cc1ccccc1OCCCn1ccc2ccc(C(=O)NO)cc2c1=O [Compound I-38, N-hydroxy-2-[3-(2-methylphenoxy)propyl]-1-oxo-1,2-dihydroisoquinoline-7-carboxamide]	96.1
CCOCCn1cnc2ccc(C(=O)NO)cc2c1=O [Compound I-226, 3-(2-ethoxyethyl)-N-hydroxy-4-oxo-3,4-dihydroquinazoline-6-carboxamide]	84.5
O=C(NO)c1ccc2ccn(CCCOc3cccc4c3CCC4)c(=O)c2c1 [Compound I-21, 2-[3-(2,3-dihydro-1H-inden-4-yloxy)propyl]-N-hydroxy-1-oxo-1,2-dihydroisoquinoline-7-carboxamide]	96.1
O=C(NO)c1ccc2ccn(CCCOc3ccc(-c4csnn4)cc3)c(=O)c2c1 [Compound I-90, N-hydroxy-1-oxo-2-{3-[4-(1,2,3-thiadiazol-4-yl)phenoxy]propyl}-1,2-dihydroisoquinoline-7-carboxamide]	97.7
O=C(NO)c1ccc2ccn(CCOc3ccccc3-n3cccc3)c(=O)c2c1 [Compound I-71, N-hydroxy-1-oxo-2-{2-[2-(1H-pyrrol-1-yl)phenoxy]ethyl}-1,2-dihydroisoquinoline-7-carboxamide]	98.5
Cc1cccc(OCc2nc3cc(C(=O)NO)ccc3c(=O)[nH]2)c1 [Compound I-107, N-hydroxy-2-[(3-methylphenoxy)methyl]-4-oxo-3,4-dihydroquinazoline-7-carboxamide]	85.2
COc1ccc2cc(OCCCn3ccc4ccc(C(=O)NO)cc4c3=O)ccc2c1 [Compound I-151, N-hydroxy-2-{3-[(6-methoxy-2-naphthyl)oxy]propyl}-1-oxo-1,2-dihydroisoquinoline-7-carboxamide]	96.2
Cn1c(NCCc2ccc(Cl)cc2)nc2ccc(C(=O)NO)cc2c1=O [Compound I-243, 2-{[2-(4-chlorophenyl)ethyl]amino}-N-hydroxy-3-methyl-4-oxo-3,4-dihydroquinazoline-6-carboxamide]	60.8
O=C(NO)c1ccc2ccn(CCOc3ccc(-n4ccnc4)cc3)c(=O)c2c1 [Compound I-271, N-hydroxy-2-{2-[4-(1H-imidazol-1-yl)phenoxy]ethyl}-1-oxo-1,2-dihydroisoquinoline-7-carboxamide]	96.9
Cn1c(=O)[nH]c2cc(C(=O)NO)ccc2c1=O [Compound I-286, N-hydroxy-3-methyl-2,4-dioxo-1,2,3,4-tetrahydroquinazoline-7-carboxamide]	21.2

More lines, now with the values ahead:

inhibition at 0.412 µM [%]	Compound
94.6	O=C(NO)c1ccc2ccn(Cc3ccc(C(F)(F)F)cc3)c(=O)c2c1 [Compound I-75, N-hydroxy-1-oxo-2-[4-(trifluoromethyl)benzyl]-1,2-dihydroisoquinoline-7-carboxamide]
94.1	O=C(NO)c1ccc2ccn(CCCOc3cccc(-c4csnn4)c3)c(=O)c2c1 [Compound I-72, N-hydroxy-1-oxo-2-{3-[3-(1,2,3-thiadiazol-4-yl)phenoxy]propyl}-1,2-dihydroisoquinoline-7-carboxamide]
86.2	O=C(NO)c1ccc2c(=O)n(Cc3ccccc3)c(NCc3ccc(Cl)cc3)nc2c1 [Compound I-238, 3-benzyl-2-[(4-chlorobenzyl)amino]-N-hydroxy-4-oxo-3,4-dihydroquinazoline-7-carboxamide]
96.1	COc1cc(Cn2ccc3ccc(C(=O)NO)cc3c2=O)cc(OC)c1 [Compound I-202, 2-(3,5-dimethoxybenzyl)-N-hydroxy-1-oxo-1,2-dihydroisoquinoline-7-carboxamide]
94.8	Cc1ccccc1Cn1ccc2ccc(C(=O)NO)cc2c1=O [Compound I-157, N-hydroxy-2-(2-methylbenzyl)-1-oxo-1,2-dihydroisoquinoline-7-carboxamide]
83	O=C(NO)c1ccc2ccn(CCCOc3cccc(OCc4ccccc4)c3)c(=O)c2c1 [Compound I-20, 2-{3-[3-(benzyloxy)phenoxy]propyl}-N-hydroxy-1-oxo-1,2-dihydroisoquinoline-7-carboxamide]
46.4	CCN(CC)c1nc2ccc(C(=O)NO)cc2c(=O)n1C [Compound I-203, 2-(diethylamino)-N-hydroxy-3-methyl-4-oxo-3,4-dihydroquinazoline-6-carboxamide]
67.4	Cc1nc(-c2ccccc2OCCCn2ccc3ccc(C(=O)NO)cc3c2=O)cs1 [Compound I-183, N-hydroxy-2-{3-[2-(2-methyl-1,3-thiazol-4-yl)phenoxy]propyl}-1-oxo-1,2-dihydroisoquinoline-7-carboxamide]
99.4	O=C(NO)c1ccc2ccn(Cc3cc(C(F)(F)F)ccc3C(F)(F)F)c(=O)c2c1 [Compound I-217, 2-[2,5-bis(trifluoromethyl)benzyl]-N-hydroxy-1-oxo-1,2-dihydroisoquinoline-7-carboxamide]
98.6	Cc1nn(-c2ccccc2)nc1Cn1ccc2ccc(C(=O)NO)cc2c1=O [Compound I-234, N-hydroxy-2-[(5-methyl-2-phenyl-2H-1,2,3-triazol-4-yl)methyl]-1-oxo-1,2-dihydroisoquinoline-7-carboxamide]
71.2	O=C(NO)c1ccc2ccn(CCN3CCCCC3)c(=O)c2c1 [Compound I-277, N-hydroxy-1-oxo-2-(2-piperidin-1-ylethyl)-1,2-dihydroisoquinoline-7-carboxamide]
80.7	O=C(NO)c1ccc2c(=O)[nH]c(COc3ccc(-n4ccnc4)cc3)nc2c1 [Compound I-210, N-hydroxy-2-{[4-(1H-imidazol-1-yl)phenoxy]methyl}-4-oxo-3,4-dihydroquinazoline-7-carboxamide]
